Source: patent US7648997B2, “Hydroxylamine substituted imidazoquinolines” (Coley Pharmaceutical Group, Inc., priority 2003, dated 2010)

| Structure (SMILES) | melting point [°C] |
| --- | --- |
| CCCc1nc2c(N)nc3ccccc3c2n1CCCONC(C)C [Example 130, 1-{3-[(Isopropylamino)oxy]propyl}-2-propyl-1H-imidazo[4,5-c]quinolin-4-amine] | 147 to 150 |
| CCCc1nc2c(N)nc3cc(Br)ccc3c2n1CCCONC(=O)C(C)C [Example 137, N-[3-(4-Amino-7-bromo-2-propyl-1H-imidazo[4,5-c]quinolin-1-yl)propoxy]-2-methylpropanamide] | 176 to 178 |
| CCCc1nc2c(N)nc(C)c(C)c2n1CCCONC(C)c1ccccc1 (centres unmarked) [Example 129, 6,7-Dimethyl-1-(3-{[(1-phenylethyl)amino]oxy}propyl)-2-propyl-1H-imidazo[4,5-c]pyridin-4-amine] | 125 to 127 |
| CCCCc1nc2c(N)nc3ccccc3c2n1CCCCONC(C)C [Example 72, 2-Butyl-1-{4-[(isopropylamino)oxy]butyl}-1H-imidazo[4,5-c]quinolin-4-amine] | 115 to 117 |
| CCCc1nc2c(N)nc3ccccc3c2n1CCCON [Example 1, 1-[3-(Aminooxy)propyl]-2-propyl-1H-imidazo[4,5-c]quinolin-4-amine] | 145 to 148 |
| CCOCc1nc2c(N)nc3cc(-c4ccccc4)cnc3c2n1CCCONC(C)C [Example 139, 2-(Ethoxymethyl)-1-{3-[(isopropylamino)oxy]propyl}-7-phenyl-1H-imidazo[4,5-c][1,5]naphthyridin-4-amine] | 142 to 144 |
| CCCc1nc2c(N)nc3cc(-c4ccccc4)ccc3c2n1CCCONC(=O)C(C)C [Example 138, N-[3-(4-Amino-7-phenyl-2-propyl-1H-imidazo[4,5-c]quinolin-1-yl)propoxy]-2-methylpropanamide] | 169 to 171 |
| CCCc1nc2c(N)nc3ccccc3c2n1CCCONC(=O)C1CC1 [Example 2, N-[3-(4-Amino-2-propyl-1H-imidazo[4,5-c]quinolin-1-yl)propoxy]cyclopropanecarboxamide] | 103 to 105 |
